The values below come from US9839614B2, “Nanoparticle and polymer formulations for thyroid hormone analogs, antagonists, and formulations and uses thereof” (NANOPHARMACEUTICALS LLC, priority 2009, dated 2017).

Data set [1] concerns ERK1/2. Nature of the data set: MAPK activation in ECV304 cells (nuclear phosphorylated ERK1/2 immunoblot). The class given is cell-based. Conditions: for effect on T4-induced ERK1/2 (MAPK) activation: PD 98059 30 μmol/L or CGP41251 100 nmol/L, 30 minutes before T4. How it is done: ECV304 endothelial cells were cultured in M199 medium with 0.25% hormone-depleted serum 13 for 2 days. […] Nuclear fractions were pre-pared from all samples by the method reported previously (see Li et al., Carcinogenesis 29:62-69 (2008)), the proteins separated by polyacrylamide gel electrophoresis, and transferred to membranes for immunoblotting with antibody to phosphorylated ERK 1/2.

Data set [2] concerns V-79 cells. Particulars: reduced from 3.4; cited from earlier work.
For data set [3] the following is noted: cited from earlier work.
The subject of data set [4] is chick chorioallantoic membrane (CAM) blood vessel branching. Nature of the data set: Chorioallantoic membrane (CAM) model of angiogenesis. Format: in vivo. Particulars: for generation of new blood vessels from existing vessels promoted: 10^−7-10^−9M. How it is done: In vivo neovascularization was examined by methods described previously. 9-12 Ten-day-old chick embryos were purchased from SPAFAS (Preston, Conn.) and incubated at 37° C. with 55% relative humidity. A hypodermic needle was used to make a small hole in the shell concealing the air sac, and a second hole was made on the broad side of the egg, directly over an avascular portion of the embryonic membrane that was identified by candling. A false air sac was created beneath the second hole by the application of negative pressure at the first hole, causing the CAM to separate from the shell. A window approximately 1.0 cm^2 was cut in the shell over the dropped CAM with a small-crafts grinding wheel (Dremel, division of Emerson Electric Co.), allowing direct access to the underlying CAM. […] Sterile disks of No. 1 filter paper (Whatman International) were pretreated with 3 mg/mL cortisone acetate and 1 mmol/L PTU and air dried under sterile conditions. Thyroid hormone, hormone analogs, FGF2 or control solvents, and inhibitors were then applied to the disks and the disks allowed to dry. The disks were then suspended in PBS and placed on growing CAMs. […] At 24 hours, the MAPK cascade inhibitor PD 98059 was also added to CAMs topically by means of the filter disks.
After incubation at 37° C. with 55% relative humidity for 3 days, the CAM tissue directly beneath each filter disk was resected from control and treated CAM samples. Tissues were washed 3× with PBS, placed in 35-mm Petri dishes (Nalge Nunc), and examined under an SV6 stereomicroscope (Zeiss) at X50 magnification. Digital images of CAM sections exposed to filters were collected using a 3-charge-coupled device color video camera system (Toshiba) and analyzed with Image-Pro software (Media Cybernetics). The number of vessel branch points contained in a circular region equal to the area of each filter disk were counted. One image was counted in each CAM preparation, and findings from 8 to 10 CAM preparations were analyzed for each treatment condition (thyroid hormone or analogs, FGF2, FGF2 antibody, PD 98059). In addition, each experiment was performed 3 times. The resulting angiogenesis index is the mean±SEM of new branch points.

Data set [5] has as its system ECV304 endothelial cells. Nature of the data set: FGF2 release from ECV304 endothelial cells (ELISA). The class given is cell-based. The procedure: ECV304 endothelial cells were cultured in M199 medium supplemented with 10% fetal bovine serum. […] After 72 hours, the supernatants were harvested and assays for FGF performed without dilution using a commercial ELISA system (R&D Systems) (See Davis et al., Circ Res 94:1500-1506 (2004)).
On the technique in general: ELISA stands for enzyme-linked immunosorbent assay.

For data set [6], the system named is FGF2 cDNA. In words: RT-PCR of FGF2 in ECV304 cells. Conditions: T4 10^−7 mol/L, 6 to 48 hours. Format: cell-based. How it is done: RNA (1 μg) was subjected to reverse transcription-polymerase chain reaction (RT-PCR) using the Access RT-PCR system (Promega). Total RNA was reverse transcribed into cDNA at 48° C. for 45 minutes, then denatured at 94° C. for 2 minutes. Second-strand synthesis and PCR amplification were performed for 40 cycles with denaturation at 94° C. for 30 s, annealing at 60° C. for 60 s, and extension at 68° C. for 120 s, with final ex-tension for 7 minutes at 68° C. after completion of all cycles. PCR primers for FGF2 were as follows: FGF2 sense strand 5′-[…]-3′ (SEQ ID NO:1), antisense strand 5′ […]-3′ (SEQ ID NO:2); the length of the PCR product was 734 bp. Primers for GAPDH included the sense strand 5′-[…]-3′ (SEQ ID NO:3), and antisense strand 5′-[…]-3′ (SEQ ID NO:4); the length of the PCR product was 218 bp. […] The target bands of the gel were quantified using Lablmage software (Kapelan), and the value for [FGF2/GAPDH]X10 calculated for each time point.

For data set [7] the following is noted: estimated; cited from earlier work.
Data set [8] has as its system SF763 glioblastoma cells. Conditions: 85 μM, 16 hours at 37° C., cited from earlier work.
For data set [9], the system named is glioblastoma (GBM). Conditions: mild hypothyroidism induced by PTU; cited from earlier work.
For data set [10], the system named is Morris 7800 hepatoma neoplasms. Particulars: PTU 0.1%; cited from earlier work.
For data set [11], the system named is transplantable liver tumor. Conditions: cited from earlier work.
Data set [12] concerns M21 cells. Conditions: 20 ug/ml; 0, 5, and 10 Gy; cited from earlier work.

Take `CO[C@@H]1[C@H](N(C)C(=O)c2ccccc2)C[C@H]2O[C@]1(C)n1c3ccccc3c3c4c(c5c6ccccc6n2c5c31)C(=O)NC4` [CGP41251]: in data set [1], the “effect on T4-induced ERK1/2 (MAPK) activation” value is reported as “blocked the effect of the hormone on MAPK activation”.
Turning to `NC(=O)c1cccc(N)c1` [Compound 3AB, 3-aminobenzamide], in data set [2], the Dq value is given as 1 Gy. In addition, the “inhibition of PLDR” value in data set [3] is listed as about 70%.
For the compound `N[C@@H](Cc1cc(I)c(Oc2ccc(O)c(I)c2)c(I)c1)C(=O)O` [Compound T3, 3,5,3′-triiodo-L-thyronine], the “generation of new blood vessels from existing vessels promoted” value in [4] was “two-to three-fold”. In addition, the “FGF2 (pg/mL/10^6 cells)” value in [5] (T3 0.01 μmol/L, 3 days) is given as 98.8 ± 0.5 pg/mL/10^6 cells.
Take `N[C@@H](Cc1cc(I)c(Oc2cc(I)c(O)c(I)c2)c(I)c1)C(=O)O` [Compound T4, L-thyroxine]: in data set [4], the “generation of new blood vessels from existing vessels promoted” value is given as “two-to three-fold”. Further, in [4] (T4 0.05 μmol/L + FGF2 0.5 μg/mL), the “combined effect of sub-maximal hormone and growth factor” value is “additive”. The same compound came in with a stimulation of angiogenesis in [4] (T4, anti-FGF2 experiments (FIG. 5A)) of 1.5 fold. Also, in data set [1] (T4 10^−7 mol/L), the “time of maximal level of nuclear phosphorylated ERK1/2” value came out at 30 min and the “time to appearance of phosphorylated ERK1/2 in cell nuclei” value is at most 15 min. For the same compound, the “FGF2 cDNA abundance corrected for GAPDH” value in [6] was “increase in abundance of FGF2 cDNA”. Moreover, in data set [7], the “pKa, COOH (carboxylic acid) group” value was about 2.0 and the “pKa, NH2 (amino) group” value is given as “approximately 9.0”.
Regarding `CC(C)[C@H]1C(=O)N[C@@H](CCCN=C(N)N)C(=O)NCC(=O)N[C@@H](CC(=O)O)C(=O)N[C@H](Cc2ccccc2)C(=O)N1C` [EMD121974], in data set [8], the “increase of α” value is reported as 4.4 fold. The “α component in the LQ survival equation” value in [8] (from approximately 0.04) is 0.18 Gy^−1.
Turning to `COc1cccc(-c2cc(=O)c3ccccc3o2)c1N` [PD 98059], the “effect on T3 + T4 stimulated blood vessel branching” value in [4] (3 μmol/L PD 98059) is “completely blocked”. Moreover, the “effect on FGF2 stimulation of branch formation” value in data set [4] (PD 98059 with FGF2 1 μg/mL) is listed as “effectively blocked”. Also, the “FGF2 (pg/mL/10^6 cells)” value in [5] (T3 + PD 98059 (2 μmol/L)) is recorded as 28.4 ± 3.2 pg/mL/10^6 cells; in data set [5] (T3 + PD 98059 (20 μmol/L)), 21.7 ± 3.5 pg/mL/10^6 cells; in data set [5] (T4 + PD 98059 (2 μmol/L)), 26.5 ± 4.5 pg/mL/10^6 cells; in [5] (T4 + PD 98059 (20 μmol/L)), 23.2 ± 4.8 pg/mL/10^6 cells. In data set [1], the “effect on T4-induced ERK1/2 (MAPK) activation” value is reported as “inhibited”.
For the compound `CCCc1cc(=O)[nH]c(=S)[nH]1` [PTU, 6-N-propyl-2-thiouracil], the “improvement of duration of survival” value in data set [9] was 3 fold. Besides, the increase in survival result in data set [10] was “approximately 1.3 fold”. For the same compound, the “time needed to grow from approximately 270 mm^3 to 900 mm^3” value in data set [11] (10 Gy of x-rays plus 0.05% PTU, control 6.2, x-rays alone 11.2) is 17.8 days. The “tumor growth rate versus control” value in [11] (PTU alone) is listed as “no difference in growth rate”.
Turning to “CNTO 95: human anti-αv integrin monoclonal antibody”, the “increase in sensitivity (in vitro apoptosis)” value in [12] is given as 2 fold.
